Experiments:
[1] = system: TC-32 ES cells transfected with DCK siRNA; experiment: Response to clofarabine after DCK siRNA, ES cells; type: cell-based, human; conditions: TC-32, DCK siRNA
Text: The expression of DCK and CD99 was suppressed transiently by using a validated small interfering RNA (siRNA) duplexes targeting coding region (Invitrogen (Carlsbad, Calif.); #s186 and #s8768, respectively). Silencer™ Select Negative Control No. 2 siRNA (Invitrogen) was used as the control. Cells were transfected with DCK or CD99 or control siRNA oligonucleotides using X-tremeGene siRNA transfection reagent (Roche Diagnostics (Basel, Switzerland)) according to the manufacturer's protocol. The cells were analyzed for DCK and CD99 knockdown after 45 or 72 h by immunoblotting.

[2] = system: TC-CD99-shRNA #1 cells; experiment: Soft agar colony formation assay, CD99 knockdown cells; type: cell-based, human
[3] = system: TC-71 xenografts; experiment: Orthotopic TC-71 xenograft, oral administration; type: in vivo, SCID/beige mice
Procedure: All tumor tissues were fixed in 10% neutral buffered formalin for 24 h, dehydrated through a graded series of alcohols and cleared in xylenes prior to embedding in paraffin. Embedded tissues were cut into 5 μm thick sections and stained with hematoxylin and eosin (H&E). Immunohistochemical staining was performed for CD99 and caspase 3 (cleaved). Five micron sections from formalin fixed paraffin embedded tissues were de-paraffinized with xylenes and rehydrated through a graded alcohol series. Heat induced epitope retrieval was performed by immersing the tissue sections at 98° C. for 60 min in 10 mmol/L citrate buffer (pH 6.0). Immunohistochemical staining was performed using a horseradish peroxidase labeled polymer from Agilent (Santa Clara, Calif.) (#K4001, #K4003) according to manufacturer's instructions. Briefly, slides were treated with 3% hydrogen peroxide and 10% normal goat serum for 10 min each, and exposed to primary antibodies for CD99 (Abcam, #ab8855) at a 1:100 dilution and for caspase 3 (cleaved) (Biocare (Pacheco, Calif.), #CP229A) at a 1:90 dilution in Da Vinci Green for one hour and stained on an DAKO Autostainer. Slides were exposed to the appropriate HRP labeled polymer for 30 min and DAB chromogen (Dako (Santa Clara, Calif.) for 5 min. Slides were counterstained with Hematoxylin (Fisher, Harris Modified Hematoxylin), blued in 1% ammonium hydroxide, dehydrated, and mounted with Acrymount. Consecutive sections with the primary antibody omitted were used as negative controls. The sections were evaluated in a blinded fashion by a board certified pathologist.
In this study, reduction in number of mitotic figures and increase in caspase-3 staining was less prominent. […] Therefore, when the animals were euthanized for tumor regrowth they were not receiving any clofarabine. Their last dose of clofarabine was more than two week before the tissue harvest.

Nc1nc(Cl)nc2c1ncn2[C@@H]1O[C@H](CO)[C@@H](O)[C@@H]1F [clofarabine]
response after inhibiting DCK protein expression [1]: shift to the right of the IC50 curve | colony formation in CD99 knockdown cells [2]: did not result in further decrease | mitotic figures ([3]; TC-71 xenograft harvested after 2 days of 30 mg/kg oral): complete loss | apoptotic cells ([3]; TC-71 xenograft harvested after 2 days of 30 mg/kg oral, H&E, caspase-3): significant increase | phosphorylation levels of MSK1/2 in tumors ([3]; TC-71 xenograft, oral 30 mg/kg for two days, three out of four mice): significant increase | tumor growth ([3]; TC-71 xenograft, 30 mg/kg orally once daily 14 days, compared to i.p. administration): more significant inhibition of tumor growth | median event-free survival ([3]; TC-71 xenograft, 30 mg/kg orally once daily for 14 days, vehicle 7 days, p<0.0001): 33 days

Source: US11202792B2, “CD99 inhibitors and their uses” (GEORGETOWN UNIVERSITY, priority 2016, dated 2021)
